{"source": "PubChem BioAssay (NCI)", "assay_in_all_cases": "growth of human tumour cells (NCI), 48 h", "key": {"[1]": {"system": "786-0 renal"}, "[2]": {"system": "A549 NSCLC"}, "[3]": {"system": "ACHN renal"}, "[4]": {"system": "BT-549 breast"}, "[5]": {"system": "CAKI-1 renal"}, "[6]": {"system": "CCRF-CEM leukemia"}, "[7]": {"system": "COLO 205 colon"}, "[8]": {"system": "DU-145 prostate"}, "[9]": {"system": "EKVX NSCLC"}, "[10]": {"system": "HCC-2998 colon"}, "[11]": {"system": "HCT-116 colon"}, "[12]": {"system": "HCT-15 colon"}, "[13]": {"system": "HL-60(TB) leukemia"}, "[14]": {"system": "HOP-62 NSCLC"}, "[15]": {"system": "HOP-92 NSCLC"}, "[16]": {"system": "HT29 colon"}, "[17]": {"system": "IGROV1 ovarian"}, "[18]": {"system": "K-562 leukemia"}, "[19]": {"system": "KM12 colon"}, "[20]": {"system": "M14 melanoma"}, "[21]": {"system": "MALME-3M melanoma"}, "[22]": {"system": "MCF7 breast"}, "[23]": {"system": "MDA-MB-231 breast"}, "[24]": {"system": "MDA-MB-435"}, "[25]": {"system": "MOLT-4 leukemia"}, "[26]": {"system": "NCI-H226 lung"}, "[27]": {"system": "NCI-H23 lung"}, "[28]": {"system": "NCI-H460 lung"}, "[29]": {"system": "NCI-H522 lung"}, "[30]": {"system": "NCI/ADR-RES ovarian"}, "[31]": {"system": "OVCAR-3 ovarian"}, "[32]": {"system": "OVCAR-4 ovarian"}, "[33]": {"system": "OVCAR-5 ovarian"}, "[34]": {"system": "OVCAR-8 ovarian"}, "[35]": {"system": "PC-3 prostate"}, "[36]": {"system": "RPMI-8226 leukemia"}, "[37]": {"system": "SF-268 CNS"}, "[38]": {"system": "SF-295 CNS"}, "[39]": {"system": "SF-539 CNS"}, "[40]": {"system": "SK-MEL-2 melanoma"}, "[41]": {"system": "SK-MEL-28 melanoma"}, "[42]": {"system": "SK-MEL-5 melanoma"}, "[43]": {"system": "SK-OV-3 ovarian"}, "[44]": {"system": "SN12C renal"}, "[45]": {"system": "SNB-19 CNS"}, "[46]": {"system": "SNB-75 CNS"}, "[47]": {"system": "SR leukemia"}, "[48]": {"system": "SW-620 colon"}, "[49]": {"system": "T-47D breast"}, "[50]": {"system": "TK-10 renal"}, "[51]": {"system": "U251 CNS"}, "[52]": {"system": "UACC-62 melanoma"}}, "note": "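Values below derive from 48-hour exposures of cells grown in 96-well plates, with endpoints linearly interpolated between the two concentrations bracketing the appropriate inhibition level. At the GI50, growth is halved. The concentration for full growth arrest is given as TGI.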"}
{"smiles": "CCOC(=O)c1c2c(n(Cc3ccc(Cl)cc3Cl)c1C)-c1nc(Cc3ccccc3)[nH]c1C(=O)C2=O", "values": [{"measurement": "GI50", "setting": "[1]", "result": 1.82, "unit": "µM"}, {"measurement": "TGI", "setting": "[1]", "result": 3.47, "unit": "µM"}, {"measurement": "GI50", "setting": "[2]", "result": 3.84, "unit": "µM"}, {"measurement": "TGI", "setting": "[2]", "result": "> 100", "unit": "µM"}, {"measurement": "GI50", "setting": "[3]", "result": 1.75, "unit": "µM"}, {"measurement": "TGI", "setting": "[3]", "result": 3.17, "unit": "µM"}, {"measurement": "GI50", "setting": "[4]", "result": 2.07, "unit": "µM"}, {"measurement": "TGI", "setting": "[4]", "result": 3.87, "unit": "µM"}, {"measurement": "GI50", "setting": "[5]", "result": 2.31, "unit": "µM"}, {"measurement": "TGI", "setting": "[5]", "result": 4.01, "unit": "µM"}, {"measurement": "GI50", "setting": "[6]", "result": 1.81, "unit": "µM"}, {"measurement": "TGI", "setting": "[6]", "result": 4.45, "unit": "µM"}, {"measurement": "GI50", "setting": "[7]", "result": 2.42, "unit": "µM"}, {"measurement": "TGI", "setting": "[7]", "result": 5.85, "unit": "µM"}, {"measurement": "GI50", "setting": "[8]", "result": 1.78, "unit": "µM"}, {"measurement": "TGI", "setting": "[8]", "result": 3.3, "unit": "µM"}, {"measurement": "GI50", "setting": "[9]", "result": 2.24, "unit": "µM"}, {"measurement": "TGI", "setting": "[9]", "result": 4.49, "unit": "µM"}, {"measurement": "GI50", "setting": "[10]", "result": 1.93, "unit": "µM"}, {"measurement": "TGI", "setting": "[10]", "result": 3.78, "unit": "µM"}, {"measurement": "GI50", "setting": "[11]", "result": 1.68, "unit": "µM"}, {"measurement": "TGI", "setting": "[11]", "result": 3.07, "unit": "µM"}, {"measurement": "GI50", "setting": "[12]", "result": 2.15, "unit": "µM"}, {"measurement": "TGI", "setting": "[12]", "result": 4.64, "unit": "µM"}, {"measurement": "GI50", "setting": "[13]", "result": 1.57, "unit": "µM"}, {"measurement": "TGI", "setting": "[13]", "result": 3.71, "unit": "µM"}, {"measurement": "GI50", "setting": "[14]", "result": 2.32, "unit": "µM"}, {"measurement": "TGI", "setting": "[14]", "result": 5.48, "unit": "µM"}, {"measurement": "GI50", "setting": "[15]", "result": 1.62, "unit": "µM"}, {"measurement": "TGI", "setting": "[15]", "result": 3.06, "unit": "µM"}, {"measurement": "GI50", "setting": "[16]", "result": 2.72, "unit": "µM"}, {"measurement": "TGI", "setting": "[16]", "result": 8.61, "unit": "µM"}, {"measurement": "GI50", "setting": "[17]", "result": 2.31, "unit": "µM"}, {"measurement": "TGI", "setting": "[17]", "result": 5.07, "unit": "µM"}, {"measurement": "GI50", "setting": "[18]", "result": 1.97, "unit": "µM"}, {"measurement": "TGI", "setting": "[18]", "result": 5.25, "unit": "µM"}, {"measurement": "GI50", "setting": "[19]", "result": 1.47, "unit": "µM"}, {"measurement": "TGI", "setting": "[19]", "result": 2.89, "unit": "µM"}, {"measurement": "GI50", "setting": "[20]", "result": 2.3, "unit": "µM"}, {"measurement": "TGI", "setting": "[20]", "result": 5.05, "unit": "µM"}, {"measurement": "GI50", "setting": "[21]", "result": 2, "unit": "µM"}, {"measurement": "TGI", "setting": "[21]", "result": 3.66, "unit": "µM"}, {"measurement": "GI50", "setting": "[22]", "result": 2.55, "unit": "µM"}, {"measurement": "TGI", "setting": "[22]", "result": 6.08, "unit": "µM"}, {"measurement": "GI50", "setting": "[23]", "result": 1.93, "unit": "µM"}, {"measurement": "TGI", "setting": "[23]", "result": 3.56, "unit": "µM"}, {"measurement": "GI50", "setting": "[24]", "result": 1.99, "unit": "µM"}, {"measurement": "TGI", "setting": "[24]", "result": 3.75, "unit": "µM"}, {"measurement": "GI50", "setting": "[25]", "result": 1.94, "unit": "µM"}, {"measurement": "TGI", "setting": "[25]", "result": 4.87, "unit": "µM"}, {"measurement": "GI50", "setting": "[26]", "result": 2.19, "unit": "µM"}, {"measurement": "TGI", "setting": "[26]", "result": 4.68, "unit": "µM"}, {"measurement": "GI50", "setting": "[27]", "result": 2.03, "unit": "µM"}, {"measurement": "TGI", "setting": "[27]", "result": 4.29, "unit": "µM"}, {"measurement": "GI50", "setting": "[28]", "result": 2.27, "unit": "µM"}, {"measurement": "TGI", "setting": "[28]", "result": 4.9, "unit": "µM"}, {"measurement": "GI50", "setting": "[29]", "result": 2.2, "unit": "µM"}, {"measurement": "TGI", "setting": "[29]", "result": 4.68, "unit": "µM"}, {"measurement": "GI50", "setting": "[30]", "result": 3.19, "unit": "µM"}, {"measurement": "TGI", "setting": "[30]", "result": 10.6, "unit": "µM"}, {"measurement": "GI50", "setting": "[31]", "result": 1.8, "unit": "µM"}, {"measurement": "TGI", "setting": "[31]", "result": 3.6, "unit": "µM"}, {"measurement": "GI50", "setting": "[32]", "result": 1.87, "unit": "µM"}, {"measurement": "TGI", "setting": "[32]", "result": 4.8, "unit": "µM"}, {"measurement": "GI50", "setting": "[33]", "result": 2.25, "unit": "µM"}, {"measurement": "TGI", "setting": "[33]", "result": 4.56, "unit": "µM"}, {"measurement": "GI50", "setting": "[34]", "result": 3.49, "unit": "µM"}, {"measurement": "TGI", "setting": "[34]", "result": 50.4, "unit": "µM"}, {"measurement": "GI50", "setting": "[35]", "result": 1.92, "unit": "µM"}, {"measurement": "TGI", "setting": "[35]", "result": 4.9, "unit": "µM"}, {"measurement": "GI50", "setting": "[36]", "result": 2.25, "unit": "µM"}, {"measurement": "TGI", "setting": "[36]", "result": 4.65, "unit": "µM"}, {"measurement": "GI50", "setting": "[37]", "result": 1.94, "unit": "µM"}, {"measurement": "TGI", "setting": "[37]", "result": 4.28, "unit": "µM"}, {"measurement": "GI50", "setting": "[38]", "result": 1.99, "unit": "µM"}, {"measurement": "TGI", "setting": "[38]", "result": 4.59, "unit": "µM"}, {"measurement": "GI50", "setting": "[39]", "result": 2.14, "unit": "µM"}, {"measurement": "TGI", "setting": "[39]", "result": 3.97, "unit": "µM"}, {"measurement": "GI50", "setting": "[40]", "result": 2.83, "unit": "µM"}, {"measurement": "TGI", "setting": "[40]", "result": 9.2, "unit": "µM"}, {"measurement": "GI50", "setting": "[41]", "result": 1.69, "unit": "µM"}, {"measurement": "TGI", "setting": "[41]", "result": 3.3, "unit": "µM"}, {"measurement": "GI50", "setting": "[42]", "result": 1.8, "unit": "µM"}, {"measurement": "TGI", "setting": "[42]", "result": 3.27, "unit": "µM"}, {"measurement": "GI50", "setting": "[43]", "result": 5.02, "unit": "µM"}, {"measurement": "TGI", "setting": "[43]", "result": 19.3, "unit": "µM"}, {"measurement": "GI50", "setting": "[44]", "result": 2.22, "unit": "µM"}, {"measurement": "TGI", "setting": "[44]", "result": 4.75, "unit": "µM"}, {"measurement": "GI50", "setting": "[45]", "result": 3.51, "unit": "µM"}, {"measurement": "TGI", "setting": "[45]", "result": 45.2, "unit": "µM"}, {"measurement": "GI50", "setting": "[46]", "result": 1.88, "unit": "µM"}, {"measurement": "TGI", "setting": "[46]", "result": 3.63, "unit": "µM"}, {"measurement": "GI50", "setting": "[47]", "result": 1.78, "unit": "µM"}, {"measurement": "TGI", "setting": "[47]", "result": 3.82, "unit": "µM"}, {"measurement": "GI50", "setting": "[48]", "result": 2.11, "unit": "µM"}, {"measurement": "TGI", "setting": "[48]", "result": 4.07, "unit": "µM"}, {"measurement": "GI50", "setting": "[49]", "result": 2.65, "unit": "µM"}, {"measurement": "TGI", "setting": "[49]", "result": 33.3, "unit": "µM"}, {"measurement": "GI50", "setting": "[50]", "result": 2.12, "unit": "µM"}, {"measurement": "TGI", "setting": "[50]", "result": 3.65, "unit": "µM"}, {"measurement": "GI50", "setting": "[51]", "result": 2.11, "unit": "µM"}, {"measurement": "TGI", "setting": "[51]", "result": 4.62, "unit": "µM"}, {"measurement": "GI50", "setting": "[52]", "result": 1.82, "unit": "µM"}, {"measurement": "TGI", "setting": "[52]", "result": 3.48, "unit": "µM"}]}
